Source: patent US20260242335A1, “HETEROCYCLOALKYL BETA-HYDROXY ALKYL AMINES FOR USE IN THE TREATMENT OF HYPERGLYCAEMIA AND DISORDERS CHARACTERISED BY HYPERGLYCAEMIA” (ATROGI AB, priority 2023, published 2026)
Counter-ions that a name gives are not always drawn.

What was measured:
L6-myotubes [1] = test: Glucose uptake (3H-2-deoxyglucose) in differentiated L6-myotubes, compared to isoproterenol; format: cell-based; settings: compound at 10 μM vs isoproterenol at 10 μM, read-out: Biological example 1: glucose uptake activity compared to that of isoproterenol
Outline: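 Differentiated L6 myotubes, serum-starved overnight in 0.5% fatty-acid-free BSA, were pretreated 1 h 40 min with agonist at 1×10^−5 M final, then re-dosed in glucose-free medium for 20 min. Uptake of 50 nM 3H-2-deoxyglucose over 10 min was read by scintillation counting and compared with isoproterenol.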

L6-myotubes [2] = test: Measurement of intracellular cAMP levels (alpha screen cAMP kit) in differentiated cells, compared to isoproterenol; format: cell-based; settings: 0.25 h, compound at 10 μM vs isoproterenol at 10 μM, 15 min stimulation, read-out: Biological example 2: intracellular cAMP level activity compared to that of isoproterenol
Outline: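 Rat L6 myoblasts differentiated to myotubes over 7 days in 2% FBS, serum-starved overnight, then stimulated 15 min with agonist at 1×10^−5 M final in HBSS with 1 mM IBMX, pH 7.4. cAMP measured by AlphaScreen after ethanol extraction and lysis; activity expressed relative to isoproterenol.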

Row | SMILES | Emax at 10 µM (L6-myotubes [1]) [%] | Emax at 10 µM (L6-myotubes [2]) [%]
1 | CNC(=O)N1CCC(CC(C)(C)NC[C@H](O)c2cccc(F)c2)CC1 [Example 45, (R)-4-(2-((2-(3-Fluorophenyl)-2-hydroxyethyl)amino)-2-methyl-propyl)-N-methylpiperidine-1-carboxamide] | 50 to 75 | < 25
2 | CC(C)(C[C@@H]1CCCN(C(=O)OC(C)(C)C)C1)NC[C@H](O)c1cccc(F)c1 [Example 1, tert-Butyl (S)-3-(2-(((R)-2-(3-fluorophenyl)-2-hydroxyethyl)amino)-2-methypropyl)piperidine-1-carboxylate acetate] | > 75 | > 75
3 | CC(C)(C[C@@H]1CCCN(C(=O)OC(C)(C)C)C1)NC[C@H](O)c1cccc(C(F)(F)F)n1 [Example 20, tert-Butyl (S)-3-(2-(((S)-2-hydroxy-2-(6-(trifluoromethyl)pyridin-2-yl)-ethyl)amino)-2-methylpropyl)piperidine-1-carboxylate] | > 75 | < 25
4 | CC(C)(C[C@@H]1CCN(C(=O)OC(C)(C)C)C1)NC[C@H](O)c1cncc(F)c1 [Example 68, tert-Butyl (S)-3-(2-(((R)-2-(5-fluoropyridin-3-yl)-2-hydroxyethyl)-amino)-2-methylpropyl)pyrrolidine-1-carboxylate] | > 75 | 25 to 50
5 | CC(=O)N1CCC[C@@H](CC(C)(C)NC[C@H](O)c2cccc(F)c2)C1 [Example 3, 1-((S)-3-(2-(((R)-2-(3-Fluorophenyl)-2-hydroxyethyl)amino)-2-methylpropyl)piperidin-1-yl)ethan-1-one hydrochloride] | > 75 | 50 to 75
6 | CC(C)(C[C@@H]1CCN(S(C)(=O)=O)C1)NC[C@H](O)c1cncc(F)c1 [Example 71, (R)-1-(5-Fluoropyridin-3-yl)-2-((2-methyl-1-((S)-1-(methylsulfonyl)-pyrrolidin-3-yl)propan-2-yl)amino)ethan-1-ol] | > 75 | < 25
7 | CC(C)(CC1CCN(C(=O)C(F)(F)F)CC1)NC[C@H](O)c1cccc(F)c1 [Example 42, (R)-2,2,2-Trifluoro-1-(4-(2-((2-(3-fluorophenyl)-2-hydroxyethyl)-amino)-2-methylpropyl)piperidin-1-yl)ethan-1-one] | 25 to 50 | < 25
8 | CC(C)(C[C@H]1CCC(=O)NC1)NC[C@H](O)c1cccc(F)c1 [Example 38, (R)-5-(2-(((R)-2-(3-Fluorophenyl)-2-hydroxyethyl)amino)-2-methyl-propyl)piperidin-2-one hydrochloride] | > 75 | < 25
